Measurements as given in patent US10138222B2, “Substituted benzamides as RIPK2 inhibitors” (Boehringer Ingelheim International GmbH, priority 2016, dated 2018).

Target: RIPK2 (Homo sapiens (Human), UniProt O43353)
Assay: RIPK2 inhibition, ADP-Glo Kinase Assay
Format: biochemical
Conditions: 8His-RIPK2 FL enzyme 8 nM, ATP 5 μM, 15 minutes pre-incubation, 60 minutes at 37° C., luminescence
Method: RIPK2 inhibition for compounds in Table 1 are shown in Table 3 and measured using the following method:
Materials: White, 384-well optiplates (cat.no. 6007290) were purchased from PerkinElmer. The V9103X ADP-Glo Kinase Assay Custom (including ultra-pure ATP) was purchased from Promega. 8His-RIPK2 FL was prepared in-house. All other materials were of highest grade commercially available.
Method: In a 384-well plate, test compound diluted in assay buffer (1% DMSO final) is mixed with 8His-RIPK2 FL enzyme (final concentration of 8 nM). After 15 minutes of pre-incubation at RT, ATP dissolved in assay buffer is added (final concentration 5 μM). The mixture is incubated for 60 minutes at 37° C. in a humidified incubator. Then, ADP Glo Reagent is added, followed by a 40 minute incubation at rt. Finally, Kinase Detection Reagent is added and the entire mixture is incubated for 40 min at RT. The luminescence signal is measured with an Envision reader to determine the amount of ADP produced. Assay buffer: 25 mM HEPES (4-(2-hydroxyethyl)-1-piperazinethanesulfonic acid), 0.1% BSA (bovine serum albumin), 10 mM MgCl2, 5 mM MnCl2, 50 mM KCl, 0.01% CHAPS (3-[(3-cholamidopropyl)dimethylammonio]-1-propanesulfonate), 10 μM Na3VO4, 1 mM DTT (dithiothreitol), pH 7.5 All plates contain wells with vehicle controls instead of compound (1% DMSO) as reference for the high signal (100% CTL (100% of control), high signal), and wells without enzyme as reference for low signal (0% CTL, low signal). The luminescent signal generated is proportional to the ADP produced and is correlated with enzyme activity. The analysis of the data is performed by the calculation of the percentage of ADP production in the presence of the test compound and RIPK2 as compared to the ADP production in the presence of RIPK2 plus 50 μM Gefitinib. (RLU (relative luminescence units) (sample)−RLU(low control))*100/(RLU(high value)−RLU(low control)) [RLU=relative luminescence units].

Sequence of RIPK2 (O43353 whole entry): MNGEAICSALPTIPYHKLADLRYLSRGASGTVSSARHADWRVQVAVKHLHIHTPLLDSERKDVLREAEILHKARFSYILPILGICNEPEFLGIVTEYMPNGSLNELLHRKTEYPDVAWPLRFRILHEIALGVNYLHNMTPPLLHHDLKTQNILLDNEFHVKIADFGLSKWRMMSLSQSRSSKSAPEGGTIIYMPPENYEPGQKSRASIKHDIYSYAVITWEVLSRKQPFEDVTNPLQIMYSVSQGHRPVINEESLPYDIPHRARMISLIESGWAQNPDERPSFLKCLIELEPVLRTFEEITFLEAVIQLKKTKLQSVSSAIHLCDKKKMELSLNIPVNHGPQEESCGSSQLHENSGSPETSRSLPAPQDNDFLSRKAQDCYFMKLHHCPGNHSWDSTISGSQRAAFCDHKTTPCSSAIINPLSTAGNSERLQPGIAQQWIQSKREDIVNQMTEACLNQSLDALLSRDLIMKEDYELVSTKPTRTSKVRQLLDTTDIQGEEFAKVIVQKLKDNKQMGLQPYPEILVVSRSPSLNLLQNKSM

Row | IC50 [nM] | SMILES
1 | 1.6 | Cc1ccc(C(=O)NC2CC2)cc1-c1cnn(-c2cncc(NC(C)C3CCOC3)c2)c1 (stereo not drawn) [Example 67, N-cyclopropyl-4-methyl-3-[1-(5-{[1-(oxolan-3-yl)ethyl]amino}pyridin-3-yl)-1H-pyrazol-4-yl]benzamide]
2 | 1.1 | Cc1cc(F)c(C(=O)NC2CC2)cc1-c1cnn(-c2cncc(NC3CCN(C4COC4)CC3)c2)c1 [Example 68, N-cyclopropyl-2-fluoro-4-methyl-5-[1-(5-{[1-(oxetan-3-yl)piperidin-4-yl]amino}pyridin-3-yl)-1H-pyrazol-4-yl]benzamide]
3 | 2.7 | Cc1ccc(C(=O)NC2CC2)cc1-c1cn(-c2cncc(C3CC3)c2)cn1 [Example 71, N-cyclopropyl-3-[1-(5-cyclopropyl-pyridin-3-yl)-1H-imidazol-4-yl]-4-methylbenzamide]
4 | 3.9 | Cc1ccc(C(=O)NC2CC2)cc1-c1cn(-c2cncc(N(C)C)c2)cn1 [Example 72, N-cyclopropyl-3-{1-[5-(dimethyl-amino)pyridin-3-yl]-1H-imidazol-4-yl}-4-methylbenzamide]
5 | 15 | Cc1ccc(C(=O)NC2CC2)cc1-c1cnn(-c2cncc(NC3CCN(C(=O)OC(C)(C)C)CC3)c2)c1 [Example 73, tert-butyl 4-[(5-{4-[5-(cyclopropylcarbamoyl)-2-methyl-phenyl]-1H-pyrazol-1-yl}pyridin-3-yl)amino]piperidine-1-carboxylate]
6 | 1 | COCCN1CCC(Nc2cncc(-n3cc(-c4cc(C(=O)NC5CC5)c(F)cc4C)cn3)c2)CC1 [Example 74, N-cyclopropyl-2-fluoro-5-[1-(5-{[1-(2-methoxyethyl)piperidin-4-yl]amino}pyridin-3-yl)-1H-pyrazol-4-yl]-4-methylbenzamide]
7 | 0.61 | Cc1ccc(C(=O)NC2CC2)cc1-c1cnn(-c2cncc(NC3CCN(C)CC3)c2)c1 [Example 76, N-cyclopropyl-4-methyl-3-(1-{5-[(1-methylpiperidin-4-yl)amino]pyridin-3-yl}-1H-pyrazol-4-yl)benzamide]
8 | 1.1 | Cc1cc(F)c(C(=O)NC2CC2)cc1-c1cnn(-c2cncc(NC3CCN(C)CC3)c2)c1 [Example 77, N-cyclopropyl-2-fluoro-4-methyl-5-(1-{5-[(1-methylpiperidin-4-yl)amino]pyridin-3-yl}-1H-pyrazol-4-yl) benzamide]
9 | 1.3 | Cc1ccc(C(=O)NC2CC2)cc1-c1cnn(-c2cncc(NC3CCOCC3)c2)c1 [Example 78, N-cyclopropyl-4-methyl-3-(1-{5-[(oxan-4-yl)amino]pyridin-3-yl}-1H-pyrazol-4-yl)benzamide]
10 | 1.4 | Cc1ccc(C(=O)NC2CC2)cc1-c1cn(-c2cncc(NC3CCN(C4COC4)CC3)c2)cn1 [Example 79, N-cyclopropyl-4-methyl-3-[1-(5-{[1-(oxetan-3-yl)piperidin-4-yl]amino}pyridin-3-yl)-1H-imidazol-4-yl] benzamide]
11 | 26 | Cc1ccc(C(=O)NC2CC2)cc1-c1cnn(-c2cncc(OCc3ccccc3)c2)c1 [Example 80, 3-{1-[5-(benzyloxy)pyridin-3-yl]-1H-pyrazol-4-yl}-N-cyclopropyl-4-methylbenzamide]
12 | 5.4 | Cc1ccc(C(=O)NC2CC2)cc1-c1cnn(-c2cncc(OC(C)C)c2)c1 [Example 81, N-cyclopropyl-4-methyl-3-{1-[5-(propan-2-yloxy)pyridin-3-yl]-1H-pyrazol-4-yl}benzamide]
13 | 1.5 | Cc1ccc(C(=O)NC2CC2)cc1-c1cnn(-c2cncc(NC3CCNCC3)c2)c1 [Example 92, N-cyclopropyl-4-methyl-3-(1-{5-[(piperidin-4-yl)amino]pyridin-3-yl}-1H-pyrazol-4-yl)benzamide]
14 | 1.5 | Cc1ccc(C(=O)NC2CC2)cc1-c1cnn(-c2cncc(NC3CCN(C4CCC4)CC3)c2)c1 [Example 93, 3-(1-{5-[(1-cyclobutylpiperidin-4-yl)amino]pyridin-3-yl}-1H-pyrazol-4-yl)-N-cyclopropyl-4-methyl-benzamide]
15 | 0.81 | Cc1ccc(C(=O)NC2CC2)cc1-c1cnn(-c2cncc(NC3CCN(C4COC4)CC3)c2)c1 [Example 94, N-cyclopropyl-4-methyl-3-[1-(5-{[1-(oxetan-3-yl)piperidin-4-yl]amino}pyridin-3-yl)-1H-pyrazol-4-yl] benzamide]
16 | 6.1 | Cc1ccc(C(=O)NC2CC2)cc1-c1cnn(-c2cncc(O)c2)c1 [Example 95, N-cyclopropyl-3-[1-(5-hydroxypyridin-3-yl)-1H-pyrazol-4-yl]-4-methyl-benzamide]
17 | 5.4 | Cc1ccc(C(=O)NC2CC2)cc1-c1cnn(-c2cncc(OC3CCOCC3)c2)c1 [Example 96, N-cyclopropyl-4-methyl-3-{1-[5-(oxan-4-yloxy)pyridin-3-yl]-1H-pyrazol-4-yl}benzamide]
18 | 3.3 | Cc1ccc(C(=O)NC2CC2)cc1-c1cnn(-c2cncc(NC3CCCCC3)c2)c1 [Example 97, 3-{1-[5-(cyclohexylamino)pyridin-3-yl]-1H-pyrazol-4-yl}-N-cyclo-propyl-4-methylbenzamide]
19 | 10 | Cc1ccc(C(=O)NC2CC2)cc1-c1cnn(-c2cncc(N3CCOCC3)c2)c1 [Example 98, N-cyclopropyl-4-methyl-3-{1-[5-(morpholin-4-yl)pyridin-3-yl]-1H-pyrazol-4-yl}benzamide]
20 | 2.6 | Cc1ccc(C(=O)NC2CC2)cc1-c1cnn(-c2cncc(NCC3CC3)c2)c1 [Example 99, N-cyclopropyl-3-(1-{5-[(cyclopropylmethyl)amino]pyridin-3-yl}-1H-pyrazol-4-yl)-4-methyl-benzamide]
21 | 29 | Cc1ccc(C(=O)NC2CC2)cc1-c1cnn(-c2cncc(N3CCN(C)CC3)c2)c1 [Example 100, N-cyclopropyl-4-methyl-3-{1-[5-(4-methylpiperazin-1-yl)pyridin-3-yl]-1H-pyrazol-4-yl}benzamide]
22 | 370 | Cc1ccc(C(=O)NC2CC2)cc1-c1cnn(-c2cncc(C3(C(N)=O)CC3)c2)c1 [Example 101, 3-{1-[5-(1-carbamoylcyclopropyl)pyridin-3-yl]-1H-pyrazol-4-yl}-N-cyclopropyl-4-methylbenzamide]
23 | 1.9 | O=C(NC1CC1)c1cc(-c2cnn(-c3cncc(C4CC4)c3)c2)c(Cl)cc1F [Example 104, 4-chloro-N-cyclopropyl-5-[1-(5-cyclopropylpyridin-3-yl)-1H-pyrazol-4-yl]-2-fluorobenzamide]
24 | 1 | Cc1cc(F)c(C(=O)NC2CC2)cc1-c1cnn(-c2cncc(C3CC3)c2)c1 [Example 105, N-cyclopropyl-5-[1-(5-cyclopropyl-pyridin-3-yl)-1H-pyrazol-4-yl]-2-fluoro-4-methylbenzamide]
25 | 7 | Cc1ccc(C(=O)NC2CC2)cc1-c1cnn(-c2cncc(N)c2)c1 [Example 106, 3-[1-(5-aminopyridin-3-yl)-1H-pyrazol-4-yl]-N-cyclopropyl-4-methylbenzamide]
26 | 3.3 | CNC(=O)Nc1cncc(-n2cc(-c3cc(C(=O)NC4CC4)ccc3C)cn2)c1 [Example 107, N-cyclopropyl-4-methyl-3-(1-{5-[(methylcarbamoyl)amino]pyridin-3-yl}-1H-pyrazol-4-yl)benzamide]

Row | SMILES | IC50 [nM]
27 | Cc1cc(F)c(C(=O)NC2CC2)cc1-c1cnn(-c2cncc(NC3CC4CCC(C3)N4C3COC3)c2)c1 (stereo not drawn) [Example 75, N-cyclopropyl-2-fluoro-4-methyl-5-[1-(5-{[8-(oxetan-3-yl)-8-azabicyclo[3.2.1]octan-3-yl]amino}pyridin-3-yl)-1H-pyrazol-4-yl]benzamide] | 0.9
